This is an account of results in ChEMBL document CHEMBL1649259, “High prevalence of CTX-M-type beta-lactamases among clinical isolates of Enterobacteriaceae in Bamako, Mali” (2009).

What all share (format): functional
In assay [1] the test system is Escherichia coli. Nature of the assay: Antibacterial activity against CTX-M-15 ESBL producing Escherichia coli assessed as resistant isolates by disk diffusion method. (Agar diffusion results depend on both activity and mobility in agar.)
Assay [2] has as its system Escherichia coli. Nature of the assay: Antibacterial activity against CTX-M-15 and SHV-12 ESBL producing Escherichia coli assessed as resistant isolates by disk diffusion method.
Assay [3] concerns Klebsiella pneumoniae. Briefly: Antibacterial activity against CTX-M-14 ESBL producing Klebsiella pneumoniae assessed as resistant isolates by disk diffusion method.
The subject of assay [4] is Enterobacter cloacae. Nature of the assay: Antibacterial activity against SHV-12 ESBL producing Enterobacter cloacae assessed as resistant isolates by disk diffusion method.
The next assay deals with Proteus mirabilis. Nature of the assay: Antibacterial activity against CTX-M-14 ESBL producing Proteus mirabilis assessed as resistant isolates by disk diffusion method.
Assay [5] relates to Klebsiella pneumoniae. Nature of the assay: Antibacterial activity against SHV-12 ESBL producing Klebsiella pneumoniae assessed as resistant isolates by disk diffusion method.
The next assay concerns Morganella morganii. Briefly: Antibacterial activity against CTX-M-14 ESBL producing Morganella morganii assessed as resistant isolates by disk diffusion method.
Assay [6] deals with Escherichia coli. Briefly: Antibacterial activity against SHV-12 ESBL producing Escherichia coli assessed as resistant isolates by disk diffusion method.
Assay [7] deals with Escherichia coli. Briefly: Antibacterial activity against CTX-M-15 and SHV-27 ESBL producing Escherichia coli assessed as resistant isolates by disk diffusion method.
Assay [8] relates to Escherichia coli. Briefly: Antibacterial activity against CTX-M-14 ESBL producing Escherichia coli assessed as resistant isolates by disk diffusion method.
Assay [9] concerns Enterobacter cloacae. Nature of the assay: Antibacterial activity against CTX-M-15 ESBL producing Enterobacter cloacae assessed as resistant isolates by disk diffusion method.
In assay [10] the test system is Klebsiella pneumoniae. Nature of the assay: Antibacterial activity against CTX-M-15 ESBL producing Klebsiella pneumoniae assessed as resistant isolates by disk diffusion method.

`COc1cc(Cc2cnc(N)nc2N)cc(OC)c1OC` [TRIMETHOPRIM]: the Activity is listed as 95% with Escherichia coli [1]; 100% in the assay on Escherichia coli [2]; 100% in the assay with Klebsiella pneumoniae [3]; 89% with Enterobacter cloacae [4]; 100% in the assay on Proteus mirabilis; 100% in the assay on Klebsiella pneumoniae [5]. For the same compound, the Activity with Morganella morganii, with Escherichia coli [6], in the assay with Escherichia coli [7], in the assay on Escherichia coli [8], in the assay on Enterobacter cloacae [9] and in the assay with Klebsiella pneumoniae [10] was 100% each time.
For the compound `CCn1cc(C(=O)O)c(=O)c2ccc(C)nc21` [NALIDIXIC ACID], the Activity with Escherichia coli [1] is given as 98%; with Escherichia coli [2] it was 100%; in the assay on Klebsiella pneumoniae [3], 67%; in the assay on Enterobacter cloacae [4] it was 100%; in the assay with Proteus mirabilis, 100%; in the assay on Klebsiella pneumoniae [5], 83%. Also, the Activity is given as 100% in the assay on Morganella morganii; 100% in the assay with Escherichia coli [6]; 0% with Escherichia coli [7]; 100% with Escherichia coli [8]; 100% in the assay on Enterobacter cloacae [9]; 93% in the assay with Klebsiella pneumoniae [10].
As to `O=C(O)c1cn(C2CC2)c2cc(N3CCNCC3)c(F)cc2c1=O` [CIPROFLOXACIN], the Activity is 98% in the assay on Escherichia coli [1]; 100% in the assay with Escherichia coli [2]; 33% with Klebsiella pneumoniae [3]; 100% with Proteus mirabilis; 67% in the assay with Klebsiella pneumoniae [5]; 100% in the assay with Morganella morganii. Moreover, the Activity with Escherichia coli [6] worked out at 0%; in the assay with Escherichia coli [7], 100%; with Escherichia coli [8], 100%.
As for `NCC[C@H](O)C(=O)N[C@@H]1C[C@H](N)[C@@H](O[C@H]2O[C@H](CN)[C@@H](O)[C@H](O)[C@H]2O)[C@H](O)[C@H]1O[C@H]1O[C@H](CO)[C@@H](O)[C@H](N)[C@H]1O` [AMIKACIN], the Activity with Escherichia coli [1] is 17%; with Escherichia coli [2] it was 0%; in the assay on Klebsiella pneumoniae [3] it was 0%; in the assay on Enterobacter cloacae [4], 78%; in the assay on Proteus mirabilis it was 0%; in the assay with Klebsiella pneumoniae [5], 50%. The Activity with Morganella morganii came to 100%; in the assay on Escherichia coli [6], 100%; in the assay on Escherichia coli [7], 0%; in the assay with Escherichia coli [8], 0%; with Enterobacter cloacae [9], 0%; in the assay with Klebsiella pneumoniae [10] it was 20%.
On to `O=C(N[C@H](CO)[C@H](O)c1ccc([N+](=O)[O-])cc1)C(Cl)Cl` [CHLORAMPHENICOL], for which the Activity came to 73% in the assay on Escherichia coli [1]; 100% in the assay on Escherichia coli [2]; 67% with Klebsiella pneumoniae [3]; 89% with Enterobacter cloacae [4]; 100% in the assay on Proteus mirabilis; 83% in the assay on Klebsiella pneumoniae [5]. Besides, the Activity in the assay on Morganella morganii is listed as 100%; in the assay on Escherichia coli [6] it was 100%; in the assay with Escherichia coli [7], 100%; in the assay with Escherichia coli [8] it was 82%; in the assay on Enterobacter cloacae [9], 100%; in the assay on Klebsiella pneumoniae [10], 40%.
As to `CN(C)[C@@H]1C(O)=C(C(N)=O)C(=O)[C@@]2(O)C(O)=C3C(=O)c4c(O)cccc4[C@@](C)(O)[C@H]3C[C@@H]12` [TETRACYCLINE], the Activity in the assay with Escherichia coli [1] was 88%; in the assay on Escherichia coli [2], 100%; in the assay on Klebsiella pneumoniae [3], 67%; in the assay with Enterobacter cloacae [4], 89%; with Proteus mirabilis, 100%; in the assay with Klebsiella pneumoniae [5], 50%. The Activity in the assay with Morganella morganii turned out to be 100%; with Escherichia coli [6], 100%; in the assay on Escherichia coli [7], 0%; in the assay with Escherichia coli [8], 82%; in the assay with Enterobacter cloacae [9], 100%; in the assay on Klebsiella pneumoniae [10] it was 84%.
Regarding GENTAMICIN, the Activity with Escherichia coli [1] stood at 83%; in the assay on Escherichia coli [2] it was 100%; in the assay with Klebsiella pneumoniae [3], 67%; with Enterobacter cloacae [4], 12%; in the assay on Proteus mirabilis, 0%; in the assay with Klebsiella pneumoniae [5] it was 33%. Further, the Activity with Morganella morganii was found to be 100%; in the assay on Escherichia coli [6] it was 0%; with Escherichia coli [7] it was 100%; with Escherichia coli [8], 100%; in the assay on Enterobacter cloacae [9], 100%; in the assay with Klebsiella pneumoniae [10], 89%.
On to `NC[C@H]1O[C@H](O[C@H]2[C@H](O)[C@@H](O[C@H]3O[C@H](CO)[C@@H](O)[C@H](N)[C@H]3O)[C@H](N)C[C@@H]2N)[C@H](N)C[C@@H]1O` [TOBRAMYCIN], for which the Activity in the assay with Escherichia coli [1] was 97%; with Escherichia coli [2], 100%; with Klebsiella pneumoniae [3], 67%; in the assay with Enterobacter cloacae [4], 89%; in the assay on Proteus mirabilis it was 0%; in the assay with Klebsiella pneumoniae [5] it was 83%. For the same compound, the Activity in the assay on Morganella morganii was determined as 100%; in the assay on Escherichia coli [6], 100%; with Escherichia coli [7], 100%; in the assay with Escherichia coli [8], 100%; with Enterobacter cloacae [9], 100%; with Klebsiella pneumoniae [10], 96%.
For `CCn1cc(C(=O)O)c(=O)c2cc(F)c(N3CCNCC3)cc21` [NORFLOXACIN], the Activity was 98% with Escherichia coli [1]; 100% in the assay with Escherichia coli [2]; 33% in the assay on Klebsiella pneumoniae [3]; 89% in the assay with Enterobacter cloacae [4]; 100% in the assay on Proteus mirabilis; 67% in the assay with Klebsiella pneumoniae [5]. The Activity in the assay with Morganella morganii is listed as 100%; with Escherichia coli [6] it was 100%; with Escherichia coli [7], 100%; with Escherichia coli [8] it was 100%; in the assay with Enterobacter cloacae [9], 100%; in the assay with Klebsiella pneumoniae [10], 96%.
